The record followed here is PubChem BioAssay (NCI).

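In this assay, cells in 96-well plates receive the compound at five concentrations for 48 hours. Endpoints are linearly interpolated between the surrounding concentrations. TGI: total growth inhibition.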

Common to all, as to experiment: inhibition of tumour cell growth, NCI panel, 48 h
Assay [1] has as its system 786-0 renal.
Assay [2] has as its system ACHN renal.
The subject of assay [3] is HL-60(TB) leukemia.
Assay [4] deals with MDA-MB-231 breast.
Assay [5] has as its system MDA-N.
The test system of assay [6] is MOLT-4 leukemia.
Assay [7] deals with NCI-H460 lung.
Assay [8] has as its system NCI/ADR-RES ovarian.
The test system of assay [9] is OVCAR-4 ovarian.
The test system of assay [10] is SK-MEL-5 melanoma.
Assay [11] concerns CAKI-1 renal.
Assay [12] has as its system SF-539 CNS.

For the molecule `CCNC(=S)NNC(=O)c1ccccc1Nc1ccccc1C(=O)NNC(=S)NCC`, the TGI in assay [1], in [2], in assay [3], in assay [4], in [5] and in [6] was over 100 µM each time. Besides, the TGI in assay [7], in assay [8], in [9] and in [10] was over 100 µM throughout.
Take `O=c1/c(=C/c2ccccn2)sc2nc3cc4c(cc3n12)OCCO4`: the TGI in assay [1], in assay [2], in assay [11], in assay [4], in [5] and in assay [6] was over 100 µM in each case. In addition, the TGI in assay [7], in assay [8], in [9] and in [10] was over 100 µM in each case.
On to `CCOC(=O)c1cc(C)nc2c1c(=O)n(-c1ccccc1)c(=O)n2CCCCN1CCN(c2ncccn2)CC1`, for which the TGI is over 100 µM in assay [1]; over 100 µM in assay [2]; 83.8 µM in [11]; 57.1 µM in [3]; over 100 µM in assay [4]; over 100 µM in assay [5]. The TGI in assay [6], in assay [8] and in [10] was over 100 µM throughout.
Regarding `CCN(C(=O)N[C@H](C(=O)N[C@@H](CSC)C(=O)N[C@@H](C)C(=O)OC)C(C)C)c1ccccc1`, the TGI is 34.2 µM in assay [1]; 28.9 µM in [2]; 36.3 µM in assay [11]; 29 µM in [4]; 36.2 µM in assay [5]; 26.7 µM in [6]. For the same molecule, the TGI in assay [7] was 32.5 µM; in assay [8] it was over 100 µM; in assay [9], 47.4 µM; in [12], 39.2 µM; in [10] it was 30.8 µM.
Take `O=C1c2cccnc2-c2nccc3c2c1nc1ccccc13`: the TGI in [1] stood at 2.21 µM; in [11], 0.467 µM; in assay [4], 0.674 µM; in assay [5], 0.359 µM; in assay [6], 3.2 µM; in assay [7] it was 0.606 µM. Also, the TGI came out at 0.673 µM in [8], 3.56 µM in assay [9], 0.544 µM in assay [12] and 0.168 µM in assay [10].
On to `CC(=O)[C@@]1(c2ccccc2)CC2(CCN(C)CC2)O[C@H]1C`, for which the TGI in assay [1], in [2], in assay [11], in assay [4], in assay [5] and in [6] was over 100 µM throughout. In addition, the TGI in assay [7], in assay [8], in assay [9], in [12] and in [10] was over 100 µM in each case.
Consider `Fc1ccc(C(OCCN2CCC3CCC(C2)N3C/C=C/c2cccs2)c2ccc(F)cc2)cc1` (stereo not drawn), for which the TGI was 20.8 µM in [1]; 24.1 µM in [2]; 23.1 µM in assay [11]; 21.3 µM in assay [4]; 22 µM in [5]; 3.14 µM in assay [6]. The TGI was determined as 15.4 µM in assay [7]; 19.7 µM in assay [8]; 22.5 µM in assay [9]; 22.5 µM in assay [12]; 12.1 µM in assay [10].
On to `NC(=S)N1N=C2c3ccccc3CCC[C@H]2[C@@H]1c1ccccc1`, for which the TGI amounted to 21.8 µM in assay [1]; 30.6 µM in assay [2]; 17.1 µM in assay [4]; 0.279 µM in assay [5]; 18.9 µM in assay [6]; 12.1 µM in assay [7]. Further, the TGI in assay [8] worked out at 3 µM; in [9] it was 23.2 µM; in assay [12], 2.61 µM; in assay [10], 8.93 µM.
Consider `COc1cc2c[n+](C)c3c4cc(OC)c(OCc5ccccc5)cc4c(OCc4ccccc4)cc3c2cc1OC`, for which the TGI in assay [1] is 35.5 µM; in assay [2], over 100 µM; in [11] it was over 77.3 µM; in assay [4], 18.4 µM; in [5], 12 µM; in assay [6], 14.2 µM. Further, the TGI was over 100 µM in [7]; over 100 µM in [8]; over 55 µM in [9]; 11.8 µM in [12]; 6.77 µM in [10].
Consider `CCC(Nc1ncnc2nc[nH]c12)C(=O)O` (stereo not drawn), for which the TGI in assay [1], in assay [2], in assay [11], in assay [3], in [4] and in assay [5] was over 100 µM in each case. Moreover, the TGI in assay [7], in assay [8], in assay [9] and in assay [10] was over 100 µM each time.
